From ChEMBL document CHEMBL1126009, “Synthesis and biological activities of fatty acid conjugates of a cyclic lactam alpha-melanotropin” (1992)

What was measured:
S91 [1] = assay: […] potency was measured as the minimal effective dose required to elicit the response relative to alpha-MSH(1.0) by using melanoma tyrosinase bioassay; response is somewhat prolonged (+/-).; format: functional, Mus musculus
S91 [2] = assay: […] potency was measured as the minimal effective dose required to elicit the response relative to alpha-MSH(1.0) by using melanoma tyrosinase bioassay; response is prolonged (+).range =10-100; format: functional, Mus musculus
lizard [3] = assay: […] activity in lizard skin (10e-9 M) bioassay, compared to the half-maximal effective dose of alpha-MSH (1.0); response is prolonged (+).; format: functional
S91 [4] = assay: […] potency was measured as the minimal effective dose required to elicit the response relative to alpha-MSH(1.0) by using melanoma tyrosinase bioassay; response is prolonged (+).range=10-100; format: functional, Mus musculus
lizard [5] = assay: […] activity in lizard skin (10e-9 M) bioassay, compared to the half-maximal effective dose of alpha-MSH (1.0); response is not prolonged (-).; format: functional

NC(=O)[C@@H]1CCCCNC(=O)C[C@H](N)C(=O)N[C@@H](Cc2c[nH]cn2)C(=O)N[C@H](Cc2ccccc2)C(=O)N[C@@H](CCCN=C(N)N)C(=O)N[C@@H](Cc2c[nH]c3ccccc23)C(=O)N1
Melanotropic potency (S91 [1]): 1

CCCCCCCCCCCCCC(=O)N[C@H]1CC(=O)NCCCC[C@@H](C(N)=O)NC(=O)[C@H](Cc2c[nH]c3ccccc23)NC(=O)[C@H](CCCN=C(N)N)NC(=O)[C@@H](Cc2ccccc2)NC(=O)[C@H](Cc2c[nH]cn2)NC1=O
Melanotropic potency (S91 [2]): 100

CCCCCC(=O)N[C@H]1CC(=O)NCCCC[C@@H](C(N)=O)NC(=O)[C@H](Cc2c[nH]c3ccccc23)NC(=O)[C@@H](CCCN=C(N)N)NC(=O)[C@H](Cc2ccccc2)NC(=O)[C@@H](Cc2c[nH]cn2)NC1=O
Melanotropic activity (lizard [3]): 1

CC(=O)N[C@H]1CC(=O)NCCCC[C@@H](C(N)=O)NC(=O)[C@H](Cc2c[nH]c3ccccc23)NC(=O)[C@H](CCCN=C(N)N)NC(=O)[C@@H](Cc2ccccc2)NC(=O)[C@H](Cc2c[nH]cn2)NC1=O
Melanotropic potency (S91 [1]): 1

CCCCCCCCCC(=O)NC1CC(=O)NCCCC[C@@H](C(N)=O)NC(=O)[C@H](Cc2c[nH]c3ccccc23)NC(=O)[C@@H](CCCN=C(N)N)NC(=O)[C@H](Cc2ccccc2)NC(=O)[C@@H](Cc2c[nH]cn2)NC1=O (some centres not stated)
Melanotropic activity (lizard [3]): 1

CCCCCC(=O)N[C@H]1CC(=O)NCCCC[C@@H](C(N)=O)NC(=O)[C@H](Cc2c[nH]c3ccccc23)NC(=O)[C@H](CCCN=C(N)N)NC(=O)[C@@H](Cc2ccccc2)NC(=O)[C@H](Cc2c[nH]cn2)NC1=O
Melanotropic potency (S91 [4]): 100

CCCCCCCCCCCCCCCC(=O)NC1CC(=O)NCCCC[C@@H](C(N)=O)NC(=O)[C@H](Cc2c[nH]c3ccccc23)NC(=O)[C@@H](CCCN=C(N)N)NC(=O)[C@H](Cc2ccccc2)NC(=O)[C@@H](Cc2c[nH]cn2)NC1=O (some centres not stated)
Melanotropic activity (lizard [3]): 0.01

CCCCCCCCCCCCCCCC(=O)N[C@H]1CC(=O)NCCCC[C@@H](C(N)=O)NC(=O)[C@H](Cc2c[nH]c3ccccc23)NC(=O)[C@H](CCCN=C(N)N)NC(=O)[C@@H](Cc2ccccc2)NC(=O)[C@H](Cc2c[nH]cn2)NC1=O
Melanotropic potency (S91 [4]): 100

NC(=O)[C@@H]1CCCCNC(=O)C[C@H](N)C(=O)N[C@H](Cc2c[nH]cn2)C(=O)N[C@H](Cc2ccccc2)C(=O)N[C@H](CCCN=C(N)N)C(=O)N[C@@H](Cc2c[nH]c3ccccc23)C(=O)N1
Melanotropic activity (lizard [5]): 0.2

CCCCCCCCCC(=O)N[C@H]1CC(=O)NCCCC[C@@H](C(N)=O)NC(=O)[C@H](Cc2c[nH]c3ccccc23)NC(=O)[C@H](CCCN=C(N)N)NC(=O)[C@@H](Cc2ccccc2)NC(=O)[C@H](Cc2c[nH]cn2)NC1=O
Melanotropic potency (S91 [4]): 100

CC(=O)N[C@H]1CC(=O)NCCCC[C@@H](C(N)=O)NC(=O)[C@H](Cc2c[nH]c3ccccc23)NC(=O)[C@@H](CCCN=C(N)N)NC(=O)[C@@H](Cc2ccccc2)NC(=O)[C@@H](Cc2c[nH]cn2)NC1=O
Melanotropic activity (lizard [5]): 1

CCCCCCCCCCCCCC(=O)NC1CC(=O)NCCCC[C@@H](C(N)=O)NC(=O)[C@H](Cc2c[nH]c3ccccc23)NC(=O)[C@@H](CCCN=C(N)N)NC(=O)[C@H](Cc2ccccc2)NC(=O)[C@@H](Cc2c[nH]cn2)NC1=O (some centres not stated)
Melanotropic activity (lizard [3]): 0.01
